# Assay results taken from patent publication US9497965B2, “Pesticidal compounds” (Syngenta Participations AG, priority 2011, dated 2016).
row,Structure (SMILES),melting point
1,"O=C(NCC1(c2c(Cl)cc(Cl)cc2Cl)CC1)c1ncccc1C(F)(F)F [A.29, N-[[1-(2,4,6-trichlorophenyl)cyclopropyl]methyl]-3-(trifluoromethyl)pyridine-2-carboxamide]",142 to 144 °C
2,"N#Cc1cc(F)c(C2(CNC(=O)c3ccccc3C(F)(F)F)CC2)c(F)c1 [A.57, N-[[1-(4-cyano-2,6-difluoro-phenyl)cyclopropyl]methyl]-2-(trifluoromethyl)benzamide]",100 to 102 °C
